Reference: patent US20240366589A1, “NHE3-BINDING COMPOUNDS AND METHODS FOR INHIBITING PHOSPHATE TRANSPORT” (Ardelyx, Inc., priority 2013, published 2024)

Tests used:
[1] = test system: absorption of sodium from the intestinal lumen; assay: Inhibition of intestinal sodium absorption: urinary sodium (uNa) 16 h after single oral dose in rats; assay type: in vivo, rat; details: for UNa (%): urinary Na excretion as % of vehicle; for Urine Na % of control: oral gavage, 16 h post-dose
Method in brief: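 Urinary sodium mass over the 16 h after one oral gavage dose, measured by cation-exchange ion chromatography, reported as percent of water-vehicle group; ANOVA plus Dunnett's post hoc test. Groups of six 8-week-old Sprague-Dawley rats, housed individually in metabolic cages post-dose, fed and watered freely.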

Rat NHE3 = biological target: T1, Rat NHE3 (Rattus norvegicus, UniProt P26433); assay: Cell-based NHE3 activity under prompt conditions (OK cells, BCECF pH recovery), rat NHE3; details: for Rat NHE3 pIC50 Prompt: Table E5, 001 free base, 002-005 dihydrochloride salt; for Prompt Rat NHE3 pIC50: prompt conditions
T1 construct: expressed in transfected cells; host or cells: Opossum kidney (OK) cells (ATCC), electroporation
T1 sequence (P26433 29-831): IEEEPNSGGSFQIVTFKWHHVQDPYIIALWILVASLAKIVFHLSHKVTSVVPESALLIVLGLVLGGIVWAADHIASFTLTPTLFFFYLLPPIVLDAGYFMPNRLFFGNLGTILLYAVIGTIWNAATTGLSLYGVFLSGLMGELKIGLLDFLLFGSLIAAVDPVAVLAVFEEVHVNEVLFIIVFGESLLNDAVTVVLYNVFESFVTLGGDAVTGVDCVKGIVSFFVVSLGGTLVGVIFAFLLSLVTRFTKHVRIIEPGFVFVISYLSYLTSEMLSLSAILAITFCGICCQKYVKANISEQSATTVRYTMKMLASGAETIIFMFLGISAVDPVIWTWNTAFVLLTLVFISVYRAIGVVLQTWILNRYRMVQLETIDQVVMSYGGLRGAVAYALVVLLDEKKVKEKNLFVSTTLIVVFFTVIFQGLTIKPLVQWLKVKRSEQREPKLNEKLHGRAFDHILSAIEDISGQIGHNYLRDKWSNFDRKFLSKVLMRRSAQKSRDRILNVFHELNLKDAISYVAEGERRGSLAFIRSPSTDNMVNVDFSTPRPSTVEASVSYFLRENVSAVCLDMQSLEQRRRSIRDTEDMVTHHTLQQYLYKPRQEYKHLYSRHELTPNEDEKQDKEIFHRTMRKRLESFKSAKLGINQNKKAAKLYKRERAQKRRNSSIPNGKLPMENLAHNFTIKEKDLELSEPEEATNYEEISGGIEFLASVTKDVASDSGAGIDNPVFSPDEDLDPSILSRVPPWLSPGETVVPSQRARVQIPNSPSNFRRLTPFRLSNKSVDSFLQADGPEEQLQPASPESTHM
Method in brief: (§1)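 Opossum kidney cells transfected with rat or human NHE3 underwent ammonium prepulse (20 mM NH4Cl, pH 7.4, 30 min) then 10 min in Na+-free buffer, room temperature.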

[2] = test system: intestinal phosphate uptake; assay: Pharmacodynamic study with 33P oral challenge in normal function rats; assay type: in vivo, rat; details: 10 mg/kg; for Pi uptake after 33P oral challenge: 8 mM Pi with 33P, dihydrochloride salts, FIG. 1A
Description: The compounds identified as Cpds 003, 004, and 005 (from Table E4, as their dihydrochloride salts) were tested for the ability to block intestinal phosphate uptake in rats. Rats were orally challenged with dosing solutions composed of 5 ml/kg (˜1.3 ml) of 8 mM Pi with ^33P and +/−10 mg/kg of test compound. Also included were dosing solutions further composed of either (i) 75 mM glucose+4 mM Ca or (ii) 4 mM Ca.

Human NHE3 [3] = biological target: T2, Human NHE3 (Homo sapiens, UniProt P48764); assay: Cell-based NHE3 activity under prompt conditions (OK cells, BCECF pH recovery), human NHE3; details: for pIC50 Prompt: Table E6, NHE3 species not stated; for Prompt Human NHE3 pIC50: prompt conditions
T2 construct: expressed in transfected cells; host or cells: Opossum kidney (OK) cells (ATCC), electroporation
T2 sequence (P48764 26-834): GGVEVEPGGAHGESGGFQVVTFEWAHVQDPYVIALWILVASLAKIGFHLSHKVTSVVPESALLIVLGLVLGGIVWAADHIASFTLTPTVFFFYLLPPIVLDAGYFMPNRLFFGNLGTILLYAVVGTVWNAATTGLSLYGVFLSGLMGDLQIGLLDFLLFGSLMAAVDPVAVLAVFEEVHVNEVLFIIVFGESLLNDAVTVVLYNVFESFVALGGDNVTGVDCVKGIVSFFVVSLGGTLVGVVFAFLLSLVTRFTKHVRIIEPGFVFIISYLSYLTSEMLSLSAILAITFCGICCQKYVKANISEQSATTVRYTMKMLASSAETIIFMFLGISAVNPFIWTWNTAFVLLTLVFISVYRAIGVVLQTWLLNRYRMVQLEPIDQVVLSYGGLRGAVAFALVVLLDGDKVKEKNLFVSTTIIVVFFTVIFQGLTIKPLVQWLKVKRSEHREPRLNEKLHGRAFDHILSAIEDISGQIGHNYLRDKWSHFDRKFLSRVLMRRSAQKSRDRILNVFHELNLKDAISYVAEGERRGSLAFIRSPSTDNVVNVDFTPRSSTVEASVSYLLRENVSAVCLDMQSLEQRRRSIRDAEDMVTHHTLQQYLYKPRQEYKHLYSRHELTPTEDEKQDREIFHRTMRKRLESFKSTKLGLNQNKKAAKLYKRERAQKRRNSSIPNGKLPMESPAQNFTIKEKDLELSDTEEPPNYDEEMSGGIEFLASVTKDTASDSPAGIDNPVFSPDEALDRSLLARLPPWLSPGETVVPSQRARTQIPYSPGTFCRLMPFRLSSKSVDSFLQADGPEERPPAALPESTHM
Method in brief: as §1

Human NHE3 [4] = biological target: T2, Human NHE3; assay: Cell-based NHE3 activity under persistent conditions (60 min incubation, washout), human NHE3; details: Table E5; dihydrochloride salt
[5] = test system: absorption of sodium from the intestinal lumen; assay: Fecal form score (FFS) 16 h after oral dose in rats; assay type: in vivo, rat; details: for Fecal Form Score average: oral gavage, 16 h post-dose, scale 1-5
Method in brief: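 Fecal form was scored at 16 h post-dose on a 1–5 wetness scale (normal pellet to liquid stream), with two independent observations averaged across six rats per group. Animals were 8-week-old Sprague-Dawley rats given test compound or water orally in the late afternoon and kept in metabolic cages.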

[6] = test system: phosphorus and calcium levels in the urine of rats; assay: Urinary excretion of phosphate and calcium in rats (16 h overnight urine); assay type: in vivo, rat; details: rats, oral gavage, 16 h post-dose

Compound: CN1Cc2c(Cl)cc(Cl)cc2[C@H](c2cccc(S(=O)(=O)NCCOCCOCCNC(=O)Nc3ccc(NC(=O)NCCOCCOCCNS(=O)(=O)c4cccc([C@@H]5CN(C)Cc6c(Cl)cc(Cl)cc65)c4)cc3)c2)C1 [Cpd 003]
- effect on urinary Na (UNa) ([1]; in words): significant reduction in UNa
- UNa (%) ([1]; single oral dose 1 mg/kg): 22 @ 1 mg/kg %
- Rat NHE3 pIC50 Prompt (Rat NHE3): 8.6
- Pi uptake after 33P oral challenge [2]: reducing Pi uptake
- Pi uptake after 33P oral challenge in the presence of Ca ([2]; 4 mM Ca, FIG. 1C): significantly reduced Pi uptake
- Pi uptake after 33P oral challenge in the presence of glucose/Ca ([2]; 75 mM glucose + 4 mM Ca, FIG. 1B): significantly reduced Pi uptake
- Human NHE3 pIC50 Prompt (Human NHE3 [3]; Table E5, 001 free base, 002-005 dihydrochloride salt): 8
- pIC50 Prompt (Human NHE3 [3]): 8
- Human NHE3 pIC50 Persistent (Human NHE3 [4]): 8.1
- effect on fecal form ([5]; in words): change in fecal form

Compound: CN1Cc2c(Cl)cc(Cl)cc2[C@@H](c2cccc(S(=O)(=O)NCCOCCOCCNC(=O)NCCCCNC(=O)NCCOCCOCCNS(=O)(=O)c3cccc([C@@H]4CN(C)Cc5c(Cl)cc(Cl)cc54)c3)c2)C1 [Cpd 005]
- UNa (%) ([1]; single oral dose 10 mg/kg): 90 @ 10 mg/kg %
- Rat NHE3 pIC50 Prompt (Rat NHE3): <5.0
- Pi uptake after 33P oral challenge [2]: inactive
- IC50 (Human NHE3 [3]; Table E5, 001 free base, 002-005 dihydrochloride salt, read-out: Human NHE3 pIC50 Prompt (converted)): > 10 µM
- pIC50 Prompt (Human NHE3 [3]): <5.0

Compound: CN(CC(=O)NCCOCCOCCNC(=O)NCCOCCOCCOCCN1CCN(c2cccc(-c3nc(NC(=N)N)nc4ccc(Cl)cc34)c2)CC1)CC(=O)NCCOCCOCCNC(=O)NCCOCCOCCOCCN1CCN(c2cccc(-c3nc(NC(=N)N)nc4ccc(Cl)cc34)c2)CC1 [compound 42]
- Urine Na % of control ([1]; dose 10 mg/kg): 94%
- Prompt Rat NHE3 pIC50 (Rat NHE3): 7.70
- Urine P % of control ([6]; dose 10 mg/kg): 94%
- Prompt Human NHE3 pIC50 (Human NHE3 [3]): 8.20
- Fecal Form Score average ([5]; dose 10 mg/kg): 1

Compound: N[C@@H]1CCCN([C@H]2Cc3c(Cl)cc(Cl)cc3[C@@H]2Oc2ccc(S(=O)(=O)NCCOCCOCCNC(=O)NCCCCNC(=O)NCCOCCOCCNS(=O)(=O)c3ccc(O[C@H]4c5cc(Cl)cc(Cl)c5C[C@@H]4N4CCC[C@@H](N)C4)cc3)cc2)C1 [compound 135]
- Urine Na % of control ([1]; dose 1 mg/kg): 100%
- Urine Na % of control ([1]; dose 3 mg/kg): 94%
- Urine Na % of control ([1]; dose 10 mg/kg): 58%
- Prompt Rat NHE3 pIC50 (Rat NHE3): 7.40
- Urine P % of control ([6]; dose 1 mg/kg): 92%
- Urine P % of control ([6]; dose 3 mg/kg): 44%
- Urine P % of control ([6]; dose 10 mg/kg): 85%
- Prompt Human NHE3 pIC50 (Human NHE3 [3]): 8.45
- Fecal Form Score average ([5]; dose 1 mg/kg): 1
- Fecal Form Score average ([5]; dose 3 mg/kg): 1
- Fecal Form Score average ([5]; dose 10 mg/kg): 2

Compound: O=C(NCCCCNC(=O)NCCOCCOCCNS(=O)(=O)c1ccc(O[C@H]2c3cc(Cl)cc(Cl)c3C[C@@H]2N2CCCCC2)cc1)NCCOCCOCCNS(=O)(=O)c1ccc(O[C@H]2c3cc(Cl)cc(Cl)c3C[C@@H]2N2CCCCC2)cc1 [compound 68]
- Urine Na % of control ([1]; dose 10 mg/kg): 70%
- Prompt Rat NHE3 pIC50 (Rat NHE3): <5.00
- Urine P % of control ([6]; dose 10 mg/kg): 97%
- Prompt Human NHE3 pIC50 (Human NHE3 [3]): <5.00
- Fecal Form Score average ([5]; dose 10 mg/kg): 1

Compound: CN1Cc2c(Cl)cc(Cl)cc2[C@H](c2cccc(S(=O)(=O)NCCOCCOCCNC(=O)N(C)CCCN(CCCN(C)C(=O)NCCOCCOCCNS(=O)(=O)c3cccc([C@@H]4CN(C)Cc5c(Cl)cc(Cl)cc54)c3)CCCN(C)C(=O)NCCOCCOCCNS(=O)(=O)c3cccc([C@@H]4CN(C)Cc5c(Cl)cc(Cl)cc54)c3)c2)C1 [compound 107]
- Urine Na % of control ([1]; dose 1 mg/kg): 88%
- Urine Na % of control ([1]; dose 3 mg/kg): 55%
- Urine Na % of control ([1]; dose 10 mg/kg): 28%
- Prompt Rat NHE3 pIC50 (Rat NHE3): 6.90
- Urine P % of control ([6]; dose 1 mg/kg): 106%
- Urine P % of control ([6]; dose 3 mg/kg): 66%
- Urine P % of control ([6]; dose 10 mg/kg): 59%
- Prompt Human NHE3 pIC50 (Human NHE3 [3]): 8.10
- Fecal Form Score average ([5]; dose 1 mg/kg): 1
- Fecal Form Score average ([5]; dose 3 mg/kg): 1
- Fecal Form Score average ([5]; dose 10 mg/kg): 4

Compound: CN1Cc2c(Cl)cc(Cl)cc2[C@H](c2cccc(S(=O)(=O)NCCOCCOCCOCCn3cc(CN(Cc4cn(CCOCCOCCOCCNS(=O)(=O)c5cccc([C@@H]6CN(C)Cc7c(Cl)cc(Cl)cc76)c5)nn4)Cc4cnnn4CCOCCOCCOCCNS(=O)(=O)c4cccc([C@@H]5CN(C)Cc6c(Cl)cc(Cl)cc65)c4)nn3)c2)C1 [compound 73]
- Urine Na % of control ([1]; dose 10 mg/kg): 74%
- Prompt Rat NHE3 pIC50 (Rat NHE3): 5.30
- Urine P % of control ([6]; dose 10 mg/kg): 49%
- Prompt Human NHE3 pIC50 (Human NHE3 [3]): 6.30
- Fecal Form Score average ([5]; dose 10 mg/kg): 2

Compound: COCCNS(=O)(=O)c1cccc(C2CN(C)Cc3c(Cl)cc(Cl)cc32)c1 (stereo not drawn) [compound 2]
- Urine Na % of control ([1]; dose 10 mg/kg): 115%
- Prompt Rat NHE3 pIC50 (Rat NHE3): 6.70
- Urine P % of control ([6]; dose 10 mg/kg): 80%
- Prompt Human NHE3 pIC50 (Human NHE3 [3]): 6.50
- Fecal Form Score average ([5]; dose 10 mg/kg): 1

Compound: N=C(N)Nc1nc(-c2cccc(N3CCN(CCOCCOCCOCCNC(=O)CCOCCOCCOCCOCCOCCOCCOCCC(=O)NCCOCCOCCOCCN4CCN(c5cccc(-c6nc(NC(=N)N)nc7ccc(Cl)cc67)c5)CC4)CC3)c2)c2cc(Cl)ccc2n1 [compound 32]
- Urine Na % of control ([1]; dose 10 mg/kg): 128%
- Prompt Rat NHE3 pIC50 (Rat NHE3): 7.30
- Urine P % of control ([6]; dose 10 mg/kg): 122%
- Prompt Human NHE3 pIC50 (Human NHE3 [3]): 8.40
- Fecal Form Score average ([5]; dose 10 mg/kg): 1

Compound: CN(CC(=O)NCCOCCOCCOCCNS(=O)(=O)c1ccc(OC2c3ccccc3CC2N2CCCCC2)cc1)CC(=O)NCCOCCOCCOCCNS(=O)(=O)c1ccc(OC2c3ccccc3CC2N2CCCCC2)cc1 (stereo not drawn) [compound 52]
- Urine Na % of control ([1]; dose 10 mg/kg): 68%
- Prompt Rat NHE3 pIC50 (Rat NHE3): 7.35
- Urine P % of control ([6]; dose 10 mg/kg): 71%
- Prompt Human NHE3 pIC50 (Human NHE3 [3]): 7.40
- Fecal Form Score average ([5]; dose 10 mg/kg): 1

Compound: CN1Cc2c(Cl)cc(Cl)cc2[C@H](c2cccc(S(=O)(=O)NCCOCCOCCNC(=O)CCC(CCC(=O)NCCOCCOCCNS(=O)(=O)c3cccc([C@@H]4CN(C)Cc5c(Cl)cc(Cl)cc54)c3)(CCC(=O)NCCOCCOCCNS(=O)(=O)c3cccc([C@@H]4CN(C)Cc5c(Cl)cc(Cl)cc54)c3)NCc3ccc(-c4ccc(Cl)cc4)cc3)c2)C1 [compound 113]
- Urine Na % of control ([1]; dose 10 mg/kg): 64%
- Prompt Rat NHE3 pIC50 (Rat NHE3): <5.00
- Urine P % of control ([6]; dose 10 mg/kg): 61%
- Prompt Human NHE3 pIC50 (Human NHE3 [3]): <5.00
- Fecal Form Score average ([5]; dose 10 mg/kg): 1
